Experiments:
adherent spleen cells = test: Co-stimulation of adherent spleen cells (macrophages) with LPS/CLP2p and recombinant cytokines, cytokine ELISA; format: cell-based, DBA/2 mice; conditions: 18 h; LPS 1 μg/ml, CLP2p 0.3 μg/ml, rIL-12/rIL-13 0.1 μg/ml, anti-IL-12 10 μg/ml
Experimental: LPS, as well as many defined cytokines, including IL-1, IL-6, IL-10, IL-12, IL-13 and IFNγ, stimulate macrophages to produce other cytokines in vitro and in vivo. […] In addition, cells were treated with CLP2p, or with cytokines, in the presence of monoclonal antibodies to cytokines. Cytokine production was measured by ELISA (all reagents purchased by Pharmingen, San Diego, USA).
IL-12 is a primary physiological stimulus for cytokine production by macrophages during inflammation [Wang, J., 1999], and LPS may mediate its stimulatory effects by inducing IL-12 production. Similarly, IL-13 may be a physiologic counter-regulator of stimulation by IL-12 [Machado, F., 1998]. […] In some cultures a monoclonal antibody to IL-12 was included. (Recombinant cytokines were obtained according to conventional protocols.) Data pooled from 3 such studies are shown in Table 1.

[1] = target: CD14 on spleen adherent cells of DBA/2 mice (mouse (cells from DBA/2 mice)) (UniProt P10810); test: cell-based or functional assay
Sequence of UniProt P10810 (P10810 16-336): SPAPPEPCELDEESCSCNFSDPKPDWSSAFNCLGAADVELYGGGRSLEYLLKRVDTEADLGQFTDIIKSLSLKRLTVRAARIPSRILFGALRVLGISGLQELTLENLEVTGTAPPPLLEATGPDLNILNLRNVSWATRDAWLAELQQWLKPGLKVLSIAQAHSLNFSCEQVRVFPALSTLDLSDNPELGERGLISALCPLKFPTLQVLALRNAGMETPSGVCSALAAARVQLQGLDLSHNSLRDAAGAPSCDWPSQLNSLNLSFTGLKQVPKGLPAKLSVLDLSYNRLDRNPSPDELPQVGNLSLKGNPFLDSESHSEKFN

[2] = Bioenhancing effect on LPS (data not shown)
[3] = tested on: LPS aggregates (Re-LPS from E. coli F515, S-form LPS from Salmonella enterica sv. Minnesota 188233); test: LPS disaggregation, automated native PAGE assay; conditions: LPS 0.275 μg/μl, hemoglobin 0.375 μg/μl, 37° C., 30 min
Excerpt: Concerning the molecular mechanism of the enhancement of LPS bioactivities by adult mammalian hemoglobin (HbA) preparations, a profound dispersion of the physiologically predominating large LPS aggregates (MW≧10^6 Da) by HbA has been described [Roth, R. J., 1994; Kaca, W., 1994; Roth R. J., 1999]. For analysis of potential analogous effects of highly purified fetal ovine hemoglobin (s-HbF) an automated native PAGE assay was established employing the PhastSystem™ apparatus (Amersham Pharmacia Biotech). Briefly, Re-LPS purified from E. coli F515 or S-form LPS from Salmonella enterica sv. Minnesota 188233 at a final concentration of 0.275 μg/μl was incubated in the presence or absence of the analyzed hemoglobin preparations (0.375 μg/μl) at 37° C. for 30 min. […] The denatured samples were finally analyzed by SDS-PAGE in PhastGel™ Homogeneous-20 gels equipped with PhastGel™ SDS buffer strips (Amersham Pharmacia Biotech) according to the standard protocol of the manufacturer and subsequent silver staining. In comparison to ovine HbF preparations of human HbA (SIGMA-Aldrich), adult ovine hemoglobin (s-HbA) and heme-free fetal ovine hemoglobin (s-HbF/hf) were analysed for LPS disaggregation activities in the native Phast™ PAGE assay.

mouse spleen cells = test: Cytokine production by mouse spleen cells with LPS and Hb; format: cell-based, C57BL/6 mice; conditions: murine spleen cells, LPS 200 ng/ml
Experimental: (§1) Spleen cells were pooled from 3 C57BL/6 donors (8-week male). Cells were incubated in triplicate in 2 ml medium (with 10% fetal calf serum and 200 ng/ml LPS) at a concentration of 1×10^6/ml. Medium contained in addition adult or fetal (sheep) hemoglobin at the various concentrations shown. Supernatants were harvested 24 hrs later to assay in triplicate for TNFα by ELISA. […] Control cultures (no LPS, LPS only, or fetal/adult Hb only) produced levels <50 ng/ml, <70 ng/ml or <50 ng/ml respectively.
as §1, with “assay for IL-6” for “assay”, “triplicate” for “triplicate for TNFα”, “<100” for “<50”, “<120” for “<70”
In this experiment the cloned γ- and β-chain of sheep Hb were assayed as CHO extracts (20 μg/ml) together with LPS (100 ng/ml) to stimulate murine spleen cells in vitro for the production of TNFα (detection at 24 hr by ELISA) […]

human PBL = test: TNFα production by human PBL with LPS and Hb; format: cell-based; conditions: LPS 200 ng/ml
Experimental: PBL were obtained by Ficoll-hypaque purification from volunteers. Cells were incubated in triplicate in 2 ml medium (with 10% commercial human AB serum and 200 ng/ml LPS) at a concentration of 1×10^6/ml. Medium contained in addition adult or fetal (sheep) hemoglobin at the various concentrations shown. Supernatants were harvested 24 hrs later to assay in triplicate for TNFα by ELISA. […] Control cultures (no LPS, LPS only, or fetal/adult Hb only) produced levels <50 ng/ml, <100 ng/ml or <65 ng/ml respectively.
PBL were obtained by Ficoll-hypaque purification from volunteers. Cells were incubated in 2 ml medium (with 10% commercial human AB serum). Cells were incubated in the presence/absence of 500 ng/ml adult or fetal sheep hemoglobin α- or γ-chain. Control cells were incubated in the absence of hemoglobin protein (far left of Figure). In addition, each group was further subdivided into triplicates which received no additional materials (open bars), or 200 ng/ml LPS (closed bars). Supernatants were harvested 24 hrs later to assay (in triplicate) for TNFα by ELISA. Data in panels A and B are independent studies using different volunteer donors (mean ±SD). […]

[4] = tested on: S-form LPS, Re-LPS, Lipid A; test: LPS/Lipid A-specific adsorption assay; format: binding
Experimental: In order to identify the LPS or Lipid A-interacting protein(s) in CLP1b a LPS/Lipid A-specific adsorption assay was developed. In this screening system polyvinylchloride 96-well microtiter plates (Becton Dickinson) were coated for 14 h at 4° C. with S-form LPS from Salmonella enterica sv. Minnesota 188233, Re-LPS from E. coli F515 or a Lipid A preparation derived from the E. coli strain solubilized as triethylamine (TEA) salts in LAL reagent water (BioWhittaker) at concentrations of 5 μg/ml or 2 μg/ml, respectively. As a control a series of wells was similarly treated with LAL reagent water without the addition of LPS or Lipid A. Subsequently, the solutions were decanted and the wells were rinsed four times with Dulbeccos phosphate-buffered saline (D-PBS; Lifetechnologies) without magnesium or calcium salts. […] In addition, the lyophilized samples from the prior CLP1b incubation and the following sequence of washing steps were resuspended in 50 μl SDS-Sample buffer and the compositions of the collected samples from the adsorption assay were analyzed by SDS-PAGE in 15% (w/v) polyacrylamide gels and silver staining according to the method described by Heukeshoven [Heukeshoven, J., 1986].

rIL-13: recombinant cytokine IL-13 [reference compound]
IL-1 level in culture supernatant (adherent spleen cells): 15 ng/mL | IL-6 level in culture supernatant (adherent spleen cells): 1040 pg/mL | TNFα level in culture supernatant (adherent spleen cells): 40 ng/mL

commercial anti-CD14 monoclonal antibody (UCHM-1, Sigma)
Inhibition % of TNF-α production by spleen adherent cells; stimulus CLP2p (0.3 µg/ml), anti-CD14 2.5 µg/ml [1]: 46% | Inhibition % of TNF-α production by spleen adherent cells; stimulus CLP2p (0.3 µg/ml), anti-CD14 10 µg/ml [1]: 80% | Inhibition % of TNF-α production by spleen adherent cells; stimulus LPS (1 µg/ml), anti-CD14 2.5 µg/ml [1]: 58% | Inhibition % of TNF-α production by spleen adherent cells; stimulus LPS (1 µg/ml), anti-CD14 10 µg/ml [1]: 81%

myoglobin
bioenhancing effect [2]: not observed

fetal Hb: purified fetal sheep hemoglobin, α and γ chains (α2γ2)
LPS disaggregation activity [3]: stronger LPS disaggregation activities | synergy with LPS in the production of TNFα or IL-6 (mouse spleen cells): clear evidence for a synergy | synergy with LPS for the production of TNFα (human PBL): striking synergy | LPS/Lipid A interaction in CLP1b [4]: major LPS/Lipid A-interacting component

B1: rIL-12: recombinant cytokine IL-12 (protein, UniProt P29459 23-219; P29460 23-328, looked up)
Interleukin-12 subunit alpha: RNLPVATPDPGMFPCLHHSQNLLRAVSNMLQKARQTLEFYPCTSEEIDHEDITKDKTSTVEACLPLELTKNESCLNSRETSFITNGSCLASRKTSFMMALCLSSIYEDLKMYQVEFKTMNAKLLMDPKRQIFLDQNMLAVIDELMQALNFNSETVPQKSSLEEPDFYKTKIKLCILLHAFRIRAVTIDRVMSYLNAS
Interleukin-12 subunit beta: IWELKKDVYVVELDWYPDAPGEMVVLTCDTPEEDGITWTLDQSSEVLGSGKTLTIQVKEFGDAGQYTCHKGGEVLSHSLLLLHKKEDGIWSTDILKDQKEPKNKTFLRCEAKNYSGRFTCWWLTTISTDLTFSVKSSRGSSDPQGVTCGAATLSAERVRGDNKEYEYSVECQEDSACPAAEESLPIEVMVDAVHKLKYENYTSSFFIRDIIKPDPPKNLQLKPLKNSRQVEVSWEYPDTWSTPHSYFSLTFCVQVQGKSKREKKDRVFTDKTSATVICRKNASISVRAQDRYYSSSWSEWASVPCS
IL-1 level in culture supernatant (adherent spleen cells): 235 ng/mL | IL-6 level in culture supernatant (adherent spleen cells): 359 pg/mL | TNFα level in culture supernatant (adherent spleen cells): 149 ng/mL
